Assay [1] deals with human FLAP (Homo sapiens (Human), UniProt P20292). Nature of the assay: FLAP binding assay (HTRF format). The gist of the method:
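Samples were run in duplicate on each of two plates and the plate results averaged. Read-out is the HTRF signal ratio.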
On the technique in general: TR-FRET usually uses a lanthanide donor and a delayed reading to cut background.

Assay [2] has as its system leukotriene pathway in human whole blood (LTB4 levels). The assay can be described thus: Human whole blood assay (A23187-stimulated LTB4). The format is cell-based. The note with it: Homo sapiens, read-out: LTB4 IC50 1:1. The gist of the method:
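Heparinised human whole blood, diluted 1:1 in RPMI, was pre-incubated with test compounds for 15 min at 37° Celsius, then stimulated with A23187 (7 μg/mL) for 30 min at 37° Celsius. Plasma LTB4 was measured by immunoassay kit; IC50 from 4-parameter fit; single replicate, at least one healthy donor.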

[3] abbreviates: human FLAP wild type, HTRF format, average of two plates, duplicates.
Setting [4] is: human whole blood diluted 1:1 in RPMI, A23187-stimulated LTB4.
Where [5] appears, read: human whole blood diluted 1:1, A23187-stimulated.

pIC50, pKi: −log10 of the molar value. Where a name gives a salt, the structure may show the parent alone. Read-outs that look alike come from different tables or passages of the source. Where only a bound is given, the exact number is not on record here.

human FLAP, sequence (P20292 whole entry): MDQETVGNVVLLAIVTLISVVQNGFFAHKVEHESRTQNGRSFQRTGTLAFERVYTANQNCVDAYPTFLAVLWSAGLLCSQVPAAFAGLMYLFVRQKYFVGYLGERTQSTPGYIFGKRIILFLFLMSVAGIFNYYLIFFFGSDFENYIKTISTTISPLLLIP

As to `CC(C)(C)NS(=O)(=O)c1ccccc1-c1ccc(-c2cnc(N)cn2)c(F)c1` [Example 4, 4′-(5-Aminopyrazin-2-yl)-N-tert-butyl-3′-fluorobiphenyl-2-sulfonamide], in assay [1] (setting [3]), the negative logarithm of the Ki (pKi) was 9.00. In assay [2] (setting [4]), the pIC50 was 7.74.
The like results for `O=C1NCC[C@@H]1NS(=O)(=O)c1ccccc1-c1ccc(-c2cnc3[nH]ccc3c2)c(F)c1` [Example 364, 3′-Fluoro-N-[(3S)-2-oxopyrrolidin-3-yl]-4′-(1H-pyrrolo[2,3-b]pyridin-5-yl)biphenyl-2-sulfonamide] were, in that order, 8.52 and 6.82.
For the molecule `CC(C)(C)NC(=O)c1cc(F)ccc1-c1ccc(-c2cnc(N)cn2)c(F)c1` [Example 502, 4′-(5-Aminopyrazin-2-yl)-N-tert-butyl-3′,4-difluorobiphenyl-2-carboxamide], in assay [1] (wild type FLAP, HTRF format), the pKi is 7.08. The negative logarithm of the IC50 (pIC50) in assay [2] (setting [5]) was 6.44.
The like results for `Nc1ncc(-c2ccc(-c3ccccc3Oc3ncccn3)cc2F)cn1` [Example 527, 5-[3-Fluoro-2′-(pyrimidin-2-yloxy)biphenyl-4-yl]pyrimidin-2-amine] were, in that order, 7.13 and 6.74.
In assay [1] (wild type FLAP, HTRF format), `Nc1cnc(-c2ccccc2-c2ccc(-c3cnc(N)nc3)c(F)c2)cn1` [Example 841, 5-[2′-(5-Aminopyrazin-2-yl)-3-fluorobiphenyl-4-yl]pyrimidin-2-amine] had a negative logarithm of the Ki (pKi) of 6.84. Also, the negative logarithm of the IC50 (pIC50) in assay [2] (setting [5]) was 6.43.
As for `Nc1cnc(-c2ccc(-c3ccccc3Sc3cnccn3)cc2F)cn1` [Example 218, 5-[3-Fluoro-2′-(pyrazin-2-ylsulfanyl)biphenyl-4-yl]pyrazin-2-amine hydrochloride], the negative-log Ki (pKi) in assay [1] (read-out: FLAP Binding wild type HTRF Ki) was 8.52. Moreover, in assay [2] (setting [4]), the pIC50 was 7.54.
Turning to `CC(C)(C)NS(=O)(=O)c1ccccc1-c1ccc(-c2cnc(N)c(Cl)c2)c(F)c1` [Example 451, 4′-(6-Amino-5-chloropyridin-3-yl)-N-tert-butyl-3′-fluorobiphenyl-2-sulfonamide trifluoroacetic acid salt], the negative logarithm of the Ki (pKi) in assay [1] (wild type FLAP, HTRF format) is 8.70. The pIC50 in assay [2] (setting [5]) was 7.42.
Take `CC(C)[C@@H](CO)NS(=O)(=O)c1ccccc1-c1ccc(-c2cnc(N)cn2)c(F)c1` [Example 148, (S)-4′-(5-Aminopyrazin-2-yl)-3′-fluoro-N-(1-hydroxy-3-methylbutan-2-yl)-[1,1′-biphenyl]-2-sulfonamide]: in assay [1] (setting [3]), the negative logarithm of the Ki (pKi) was 8.70. Besides, the pIC50 in assay [2] (setting [4]) was 8.10.
Consider `Nc1ncc(-c2ccc(-c3ccccc3S(=O)(=O)N3CCCC(CCO)C3)cc2F)cc1F` (racemic) [Example 671, 2-(1-((4′-(6-Amino-5-fluoropyridin-3-yl)-3′-fluoro-[1,1′-biphenyl]-2-yl)sulfonyl)piperidin-3-yl)ethanol], for which the negative logarithm of the Ki (pKi) in assay [1] (wild type FLAP, HTRF format) is 7.80. In assay [2] (setting [5]), the pIC50 is 6.78.
For `Nc1ncc(-c2ccc(-c3ccccc3S(=O)(=O)N[C@H]3CCCC[C@@H]3O)cc2F)cn1` (racemic) [Example 260, racemic 4′-(2-Aminopyrimidin-5-yl)-3′-fluoro-N-[(trans)-2-hydroxycyclohexyl]biphenyl-2-sulfonamide], the pKi in assay [1] (setting [3]) is 8.00. Moreover, the negative logarithm of the IC50 (pIC50) in assay [2] (setting [4]) was 7.24.
The like results for `CN(C)S(=O)(=O)c1ccccc1-c1ccc(-c2cnc3[nH]ccc3n2)c(F)c1` [Example 370, 3′-Fluoro-N,N-dimethyl-4′-(5H-pyrrolo[2,3-b]pyrazin-2-yl)biphenyl-2-sulfonamide] were, in that order, 8.70 and 7.06.
As to `CC(C)(C)NS(=O)(=O)c1ccccc1-c1ccc(-c2cnc(N)c(N)c2)c(F)c1` [Example 448, N-tert-Butyl-4′-(5,6-diaminopyridin-3-yl)-3′-fluorobiphenyl-2-sulfonamide], in assay [1] (wild type FLAP, HTRF format), the pKi was 8.00. For the same molecule, the negative logarithm of the IC50 (pIC50) in assay [2] (setting [5]) was 6.95.
In assay [1] (setting [3]), `CN([C@@H]1CCCNC1)S(=O)(=O)c1ccccc1-c1ccc(-c2cnc(N)nc2)c(F)c1` [Example 257, 4′-(2-Aminopyrimidin-5-yl)-3′-fluoro-N-methyl-N-[(3R)-piperidin-3-yl]biphenyl-2-sulfonamide] showed a pKi of 6.81. In assay [2] (setting [4]), the pIC50 was 5.95.
On to `Nc1cnc(-c2ccc(-c3ccccc3S(=O)(=O)NCC3CNC3)cc2F)cn1` [Example 125, 4′-(5-Aminopyrazin-2-yl)-N-(azetidin-3-ylmethyl)-3′-fluorobiphenyl-2-sulfonamide], for which, in assay [1] (setting [3]), the negative logarithm of the Ki (pKi) is 7.30. For the same molecule, the pIC50 in assay [2] (setting [4]) is less than 5.00.
The like results for `Nc1cnc(-c2ccc(-c3ccccc3S(=O)(=O)N3C[C@@H]4C[C@H]3CN4)cc2F)cn1` [Example 131, 5-(2′-((1S,4S)-2,5-Diazabicyclo[2.2.1]heptan-2-ylsulfonyl)-3-fluoro-[1,1′-biphenyl]-4-yl)pyrazin-2-amine] were, in that order, 6.84 and 6.16.
In assay [1] (wild type FLAP, HTRF format), `CC(C)CS(=O)(=O)Nc1ccccc1-c1ccc(-c2cnc3[nH]ccc3n2)c(F)c1` [Example 495, N-[3′-Fluoro-4′-(5H-pyrrolo[2,3-b]pyrazin-2-yl)biphenyl-2-yl]-2-methylpropane-1-sulfonamide] showed a pKi of 8.40. For the same molecule, the pIC50 in assay [2] (setting [5]) is 6.29.
Regarding `CC(C)CS(=O)(=O)c1ccccc1-c1ccc(-c2cnc(N)cn2)c(F)c1` [Example 193, 5-{3-Fluoro-2′-[(2-methylpropyl)sulfonyl]biphenyl-4-yl}pyrazin-2-amine], the negative logarithm of the Ki (pKi) in assay [1] (setting [3]) was 7.59. Besides, in assay [2] (setting [4]), the negative-log IC50 (pIC50) was 6.84.
The like results for `Nc1cnc(-c2ccc(-c3ccccc3S(=O)(=O)N[C@H]3CC[C@@H](N)CC3)cc2F)cn1` [Example 134, cis-N-(4-Aminocyclohexyl)-4′-(5-aminopyrazin-2-yl)-3′-fluorobiphenyl-2-sulfonamide] were, in that order, 9.00 and less than 6.00.
For `C[C@H](CO)NC(=O)c1ccccc1-c1ccc(-c2cnc(N)cn2)c(F)c1` [Example 512, 4′-(5-Aminopyrazin-2-yl)-3′-fluoro-N-[(1R)-2-hydroxy-1-methylethyl]biphenyl-2-carboxamide], the negative logarithm of the Ki (pKi) in assay [1] (wild type FLAP, HTRF format) was 6.35. For the same molecule, the pIC50 in assay [2] (setting [5]) was 6.33.
The like results for `CC(C)(C)NC(=O)c1cc(C(F)(F)F)ccc1-c1ccc(-c2cnc(N)cn2)c(F)c1` [Example 784, 2-[4-(5-Aminopyrazin-2-yl)-3-fluoro-phenyl]-N-tert-butyl-5-(trifluoromethyl)benzamide] were, in that order, 8.10 and 6.96.
The like results for `C[C@@H](NC(=O)c1cc(C(F)(F)F)ccc1-c1ccc(-c2cnc(N)cn2)c(F)c1)C(F)(F)F` [Example 787, 2-[4-(5-Aminopyrazin-2-yl)-3-fluoro-phenyl]-5-(trifluoromethyl)-N-[(1R)-2,2,2-trifluoro-1-methyl-ethyl]benzamide] were, in that order, 8.04 and 7.01.
`Nc1cnc(-c2ccc(-c3ccccc3S(=O)(=O)N3CCC(c4c[nH]cn4)CC3)cc2F)cn1` [Example 164, 5-(3-Fluoro-2′-{[4-(1H-imidazol-4-yl)piperidin-1-yl]sulfonyl}biphenyl-4-yl)pyrazin-2-amine]: the pKi in assay [1] (setting [3]) is 9.00. The negative-log IC50 (pIC50) in assay [2] (setting [4]) is 6.48.
The like results for `CCNS(=O)(=O)c1ccccc1-c1ccc(-c2cnc(N)cn2)c(F)c1` [Example 16, 4′-(5-Aminopyrazin-2-yl)-N-ethyl-3′-fluorobiphenyl-2-sulfonamide] were, in that order, 8.22 and 7.74.
Molecule `Nc1cnc(-c2ccc(-c3ccccc3NS(=O)(=O)C3CCC3)cc2F)cn1` [Example 40, N-(4′-(5-Aminopyrazin-2-yl)-3′-fluoro-[1,1′-biphenyl]-2-yl)cyclobutanesulfonamide] had a pKi in assay [1] (setting [3]) of 7.85. For the same molecule, the pIC50 in assay [2] (setting [4]) is 6.95.
The like results for `Nc1cnc(-c2ccc(-c3ccccc3S(=O)(=O)NC[C@@H](O)CO)cc2F)cn1` [Example 105, (R)-4′-(5-Aminopyrazin-2-yl)-N-(2,3-dihydroxypropyl)-3′-fluoro-[1,1′-biphenyl]-2-sulfonamide] were, in that order, 7.60 and 6.32.
In turn, `CC(C)(C)NS(=O)(=O)c1ccccc1-c1ccc(-c2cnc(N)nc2)c(F)c1` [Example 305, 4′-(2-Aminopyrimidin-5-yl)-N-(tert-butyl)-3′-fluoro-[1,1′-biphenyl]-2-sulfonamide trifluoroacetic acid salt] gave a negative-log Ki (pKi) in assay [1] (setting [3]) of 8.70. Besides, in assay [2] (setting [4]), the negative-log IC50 (pIC50) was 7.11.
As to `C[C@H](CO)NS(=O)(=O)c1ccccc1-c1ccc(-c2ncc(N)nc2C#N)c(F)c1` [Example 710, 4′-(5-Amino-3-cyanopyrazin-2-yl)-3′-fluoro-N-[(1R)-2-hydroxy-1-methylethyl]biphenyl-2-sulfonamide], the negative logarithm of the Ki (pKi) in assay [1] (wild type FLAP, HTRF format) is 7.86. Besides, the negative logarithm of the IC50 (pIC50) in assay [2] (setting [5]) was 7.25.
In turn, `CCC(C)(C)NS(=O)(=O)c1ccccc1-c1ccc(-c2cnc(N)cn2)c(F)c1` [Example 12, 4′-(5-Aminopyrazin-2-yl)-N-(1,1-dimethylpropyl)-3′-fluorobiphenyl-2-sulfonamide] showed a pKi in assay [1] (setting [3]) of 8.70. The pIC50 in assay [2] (setting [4]) is 7.68.
The like results for `COc1cc(NS(=O)(=O)c2ccccc2-c2ccc(-c3cnc(N)cn3)c(F)c2)nc(OC)n1` [Example 166, 4′-(5-Aminopyrazin-2-yl)-N-(2,6-dimethoxypyrimidin-4-yl)-3′-fluorobiphenyl-2-sulfonamide] were, in that order, 6.79 and 5.35.
Consider `CC(C)Sc1ncccc1-c1ccc(-c2cnc(N)cn2)c(F)c1` [Example 396, 5-(2-Fluoro-4-{2-[(1-methylethyl)sulfanyl]pyridin-3-yl}phenyl)pyrazin-2-amine], for which the pKi in assay [1] (wild type FLAP, HTRF format) was 8.10. Besides, in assay [2] (setting [5]), the negative logarithm of the IC50 (pIC50) was 6.86.
The like results for `CC(C)(C)NS(=O)(=O)c1ccccc1-c1ccc(-c2cnc(N)c(Cl)n2)c(F)c1` [Example 441, 4′-(5-Amino-6-chloropyrazin-2-yl)-N-tert-butyl-3′-fluorobiphenyl-2-sulfonamide] were, in that order, 9.00 and 8.22.

The term pKi denotes the Ki on a negative log10 scale, so that one unit is a factor of ten. What is called pIC50 is the negative decadic logarithm of the IC50, by convention in mol/L.

The values above are taken from patent US9079866B2, “Flap modulators” (JANSSEN PHARMACEUTICA NV, priority 2013, dated 2015).
